In brackets after ≈: the same amount, converted by molar mass. Activity calls are given as the source filed them. The rule behind the calls is not given here.
How the values were obtained:
Format in all cases: functional
Enterococcus [1] = assay: Antimicrobial activity against vancomycin-resistant Enterococcus 15A799 by broth microdilution method
Enterococcus [2] = assay: Antimicrobial activity against vancomycin-susceptible Enterococcus 15A797 by broth microdilution method
Enterococcus [3] = assay: Antimicrobial activity against vancomycin-susceptible Enterococcus 15A797 by broth microdilution method in presence of ZnSo4 in medium
Enterococcus [4] = assay: Antimicrobial activity against vancomycin-resistant Enterococcus 15A799 by broth microdilution method in presence of ZnSo4 in medium

| Structure (SMILES) | MIC (Enterococcus [1]) | MIC (Enterococcus [2]) [µM] | MIC (Enterococcus [3]) | MIC (Enterococcus [4]) |
| --- | --- | --- | --- | --- |
| C#CCCC(=O)NCCCOCCOCCOCCCNC(=O)[C@H]1NC(=O)[C@H]2NC(=O)[C@H](NC(=O)[C@@H]3NC(=O)[C@H](CC(N)=O)NC(=O)[C@H](NC(=O)[C@@H](CC(C)C)NC)[C@H](O)c4ccc(c(Cl)c4)Oc4cc3cc(c4O[C@@H]3O[C@H](CO)[C@@H](O)[C@H](O)[C@H]3O[C@H]3C[C@](C)(N)[C@H](O)[C@H](C)O3)Oc3ccc(cc3Cl)[C@H]2O)c2ccc(O)c(c2)-c2c(O)cc(O)cc21 | inactive | 1 (≈ 1.73 µg/mL) |  |  |
| COC(=O)c1cc(OCCNC(=O)c2cc(OCc3cn(CCCNC(=O)CC[C@H](NC(=O)c4cc5cc(c4)CN(C(=O)[C@H](Cc4c[nH]cn4)NC(C)=O)CCCN(C(=O)[C@H](Cc4c[nH]cn4)NC(C)=O)CCCN(C(=O)[C@H](Cc4c[nH]cn4)NC(C)=O)C5)C(N)=O)nn3)cc(OCc3cn(CCCNC(=O)CC[C@H](NC(=O)c4cc5cc(c4)CN(C(=O)[C@H](Cc4c[nH]cn4)NC(C)=O)CCCN(C(=O)[C@H](Cc4c[nH]cn4)NC(C)=O)CCCN(C(=O)[C@H](Cc4c[nH]cn4)NC(C)=O)C5)C(N)=O)nn3)c2)cc(OCCNC(=O)c2cc(OCc3cn(CCCNC(=O)CC[C@@H](NC(=O)c4cc5cc(c4)CN(C(=O)[C@H](Cc4c[nH]cn4)NC(C)=O)CCCN(C(=O)[C@@H](Cc4c[nH]cn4)NC(C)=O)CCCN(C(=O)[C@H](Cc4c[nH]cn4)NC(C)=O)C5)C(N)=O)nn3)cc(OCc3cn(CCCNC(=O)CC[C@@H](NC(=O)c4cc5cc(c4)CN(C(=O)[C@H](Cc4c[nH]cn4)NC(C)=O)CCCN(C(=O)[C@@H](Cc4c[nH]cn4)NC(C)=O)CCCN(C(=O)[C@H](Cc4c[nH]cn4)NC(C)=O)C5)C(N)=O)nn3)c2)c1 |  |  | inactive | inactive |
| CC(=O)N[C@@H](Cc1c[nH]cn1)C(=O)N1CCCN(C(=O)[C@H](Cc2c[nH]cn2)NC(C)=O)Cc2cc(cc(C(=O)N[C@@H](CCC(=O)NCCCN=[N+]=[N-])C(N)=O)c2)CN(C(=O)[C@@H](Cc2c[nH]cn2)NC(C)=O)CCC1 |  |  | inactive | inactive |
| CN[C@H](CC(C)C)C(=O)N[C@H]1C(=O)N[C@@H](CC(N)=O)C(=O)N[C@H]2C(=O)N[C@H]3C(=O)N[C@H](C(=O)N[C@H](C(=O)O)c4cc(O)cc(O)c4-c4cc3ccc4O)[C@H](O)c3ccc(c(Cl)c3)Oc3cc2cc(c3O[C@@H]2O[C@H](CO)[C@@H](O)[C@H](O)[C@H]2O[C@H]2C[C@](C)(N)[C@H](O)[C@H](C)O2)Oc2ccc(cc2Cl)[C@H]1O [VANCOMYCIN] | 86 µM (≈ 125 µg/mL) | 0.3 (≈ 0.435 µg/mL) |  |  |
| CN[C@H](CC(C)C)C(=O)N[C@H]1C(=O)N[C@@H](CC(N)=O)C(=O)N[C@H]2C(=O)N[C@H]3C(=O)N[C@H](C(=O)N[C@H](C(=O)NCCCOCCOCCOCCNC(=O)c4cc(OCCNC(=O)c5cc(OCc6cn(CCCNC(=O)CC[C@H](NC(=O)c7cc8cc(c7)CN(C(=O)[C@@H](Cc7c[nH]cn7)NC(C)=O)CCCN(C(=O)[C@H](Cc7c[nH]cn7)NC(C)=O)CCCN(C(=O)[C@H](Cc7c[nH]cn7)NC(C)=O)C8)C(N)=O)nn6)cc(OCc6cn(CCCNC(=O)CC[C@H](NC(=O)c7cc8cc(c7)CN(C(=O)[C@@H](Cc7c[nH]cn7)NC(C)=O)CCCN(C(=O)[C@H](Cc7c[nH]cn7)NC(C)=O)CCCN(C(=O)[C@H](Cc7c[nH]cn7)NC(C)=O)C8)C(N)=O)nn6)c5)cc(OCCNC(=O)c5cc(OCc6cn(CCCNC(=O)CC[C@H](NC(=O)c7cc8cc(c7)CN(C(=O)[C@@H](Cc7c[nH]cn7)NC(C)=O)CCCN(C(=O)[C@H](Cc7c[nH]cn7)NC(C)=O)CCCN(C(=O)[C@H](Cc7c[nH]cn7)NC(C)=O)C8)C(N)=O)nn6)cc(OCc6cn(CCCNC(=O)CC[C@H](NC(=O)c7cc8cc(c7)CN(C(=O)[C@@H](Cc7c[nH]cn7)NC(C)=O)CCCN(C(=O)[C@H](Cc7c[nH]cn7)NC(C)=O)CCCN(C(=O)[C@H](Cc7c[nH]cn7)NC(C)=O)C8)C(N)=O)nn6)c5)c4)c4cc(O)cc(O)c4-c4cc3ccc4O)[C@H](O)c3ccc(c(Cl)c3)Oc3cc2cc(c3O[C@@H]2O[C@H](CO)[C@@H](O)[C@H](O)[C@H]2O[C@H]2C[C@](C)(N)[C@H](O)[C@H](C)O2)Oc2ccc(cc2Cl)[C@H]1O | inactive | 40 (≈ 255 µg/mL) | 5 µM | inactive |
| C#CCOc1cc(OCC#C)cc(C(=O)NCCOc2cc(OCCNC(=O)c3cc(OCC#C)cc(OCC#C)c3)cc(C(=O)NCCCOCCOCCOCCCNC(=O)[C@H]3NC(=O)[C@H]4NC(=O)[C@H](NC(=O)[C@@H]5NC(=O)[C@H](CC(N)=O)NC(=O)[C@H](NC(=O)[C@@H](CC(C)C)NC)[C@H](O)c6ccc(c(Cl)c6)Oc6cc5cc(c6O[C@@H]5O[C@H](CO)[C@@H](O)[C@H](O)[C@H]5O[C@H]5C[C@](C)(N)[C@H](O)[C@H](C)O5)Oc5ccc(cc5Cl)[C@H]4O)c4ccc(O)c(c4)-c4c(O)cc(O)cc43)c2)c1 | 3.2 µM (≈ 7.35 µg/mL) | 1.6 (≈ 3.68 µg/mL) |  |  |
| CN[C@H](CC(C)C)C(=O)N[C@H]1C(=O)N[C@@H](CC(N)=O)C(=O)N[C@H]2C(=O)N[C@H]3C(=O)N[C@H](C(=O)N[C@H](C(=O)NCCCOCCOCCOCCCNC(=O)CCc4cn(CCCNC(=O)CC[C@H](NC(=O)c5cc6cc(c5)CN(C(=O)[C@@H](Cc5c[nH]cn5)NC(C)=O)CCCN(C(=O)[C@H](Cc5c[nH]cn5)NC(C)=O)CCCN(C(=O)[C@H](Cc5c[nH]cn5)NC(C)=O)C6)C(N)=O)nn4)c4cc(O)cc(O)c4-c4cc3ccc4O)[C@H](O)c3ccc(c(Cl)c3)Oc3cc2cc(c3O[C@@H]2O[C@H](CO)[C@@H](O)[C@H](O)[C@H]2O[C@H]2C[C@](C)(N)[C@H](O)[C@H](C)O2)Oc2ccc(cc2Cl)[C@H]1O | inactive | 5.8 (≈ 16 µg/mL) | 2.9 µM | 92.8 µM |
